Measured values: US20090264387A1, “ESTRA-1,3,5(10)-TRIENE DERIVATIVES FOR CONTRACEPTION” (GRUNENTHAL GMBH, priority 2008, published 2009)

Biological target: T1, recombinant human progestin receptor (Homo sapiens, UniProt P06401)
T1 sequence (P06401 1-933): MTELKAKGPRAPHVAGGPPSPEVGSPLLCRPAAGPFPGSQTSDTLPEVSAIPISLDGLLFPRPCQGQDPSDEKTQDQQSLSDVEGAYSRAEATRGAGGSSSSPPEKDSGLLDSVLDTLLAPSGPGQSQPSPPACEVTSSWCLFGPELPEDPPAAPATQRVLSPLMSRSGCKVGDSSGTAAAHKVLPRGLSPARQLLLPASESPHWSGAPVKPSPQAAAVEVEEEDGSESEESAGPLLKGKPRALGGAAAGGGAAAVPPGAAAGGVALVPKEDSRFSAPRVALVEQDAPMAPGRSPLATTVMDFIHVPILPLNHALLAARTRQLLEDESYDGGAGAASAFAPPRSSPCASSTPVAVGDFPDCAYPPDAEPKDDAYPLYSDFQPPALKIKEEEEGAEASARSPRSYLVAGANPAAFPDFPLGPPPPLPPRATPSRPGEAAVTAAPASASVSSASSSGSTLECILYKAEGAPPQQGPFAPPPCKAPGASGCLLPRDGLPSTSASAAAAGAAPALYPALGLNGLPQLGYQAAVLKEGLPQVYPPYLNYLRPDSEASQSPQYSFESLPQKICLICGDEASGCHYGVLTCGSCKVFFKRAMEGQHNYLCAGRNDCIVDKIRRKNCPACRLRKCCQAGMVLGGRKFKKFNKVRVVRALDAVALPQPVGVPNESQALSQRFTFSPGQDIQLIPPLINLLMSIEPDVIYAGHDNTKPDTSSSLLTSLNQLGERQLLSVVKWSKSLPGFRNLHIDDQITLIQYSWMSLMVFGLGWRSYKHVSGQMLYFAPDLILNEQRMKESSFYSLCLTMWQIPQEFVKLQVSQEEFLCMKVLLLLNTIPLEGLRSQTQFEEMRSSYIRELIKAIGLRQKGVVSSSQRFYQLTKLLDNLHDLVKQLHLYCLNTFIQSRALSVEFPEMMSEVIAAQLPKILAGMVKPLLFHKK
Test: Relative binding affinity to recombinant human progestin receptor
Source text: Methods of determining affinity to the aforementioned receptors are known to the person skilled in the art. In this context, reference can be made, for example, to EP-A 808 845; Lacroix et al., Bioorganic & Medicinal Chemistry 1999 (7) 2329-2341; and D. Philibert et al., Gynecol Endocrinol 1999, 13, 316-26.
The relative binding affinities of (2S,17S)-17-(2-hydroxypropanoyl)-3-hydroxy-17-methyl-estra-1,3,5(10),9(11)-tetraene [compound of the general formula (IV)] to the recombinant human progestin receptor, mineral corticoid receptor, androgen receptor, glucocorticoid receptor and oestrogen receptor were determined experimentally (cf. D. Philibert et al., Gynecol Endocrinol 1999, 13, 316-26).

SMILES: C[C@H](O)C(=O)[C@@]1(C)CC[C@H]2[C@@H]3CCc4cc(O)ccc4C3=CC[C@@]21C [(2S,17S)-17-(2-hydroxypropanoyl)-3-hydroxy-17-methylestra-1,3,5(10),9(11)-tetraene]
- affinity to the progestin receptor (relative binding affinity) (recombinant human receptor, progesterone reference standard): clear affinity
- selectivity for the progestin receptor (versus other steroid receptors (mineral corticoid, androgen, glucocorticoid, oestrogen), quotient of relative binding affinities): high selectivity
